Laboratory results: the supplement of paper PMC10307832

Legend:
Assay in all cases: relative viability (nuclei count vs DMSO), 5 days (fraction); higher = more cells survive
[1] = compound: C[C@]1(c2nc3c(C(N)=O)cccc3[nH]2)CCCN1 [Veliparib] + Cc1nc(Nc2ncc(C(=O)Nc3c(C)cccc3Cl)s2)cc(N2CCN(CCO)CC2)n1 [Dasatinib] (partner 0.075 µM)
Summary of the method: (§1)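 The day after seeding in 1536-well plates, lung cancer cell lines were treated by pin tool with a single drug, or with a fixed anchor-drug dose together with five library-drug doses (not always all listed) in √10 steps. After 5 days, a combined fix-and-stain solution (final 0.05% Triton X-100, 1% formaldehyde, 1 ug/ml Hoechst) was added. Nuclei counted on 4× images gave relative viability as treated counts over vehicle counts, reported as the median of duplicate plates.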

[2] = compound: COC1=CC=C(C=C1)CN2C=CC3=C2C=C(C=C3)C(=O)NO + Nc1ncn([C@H]2C[C@H](O)[C@@H](CO)O2)c(=O)n1 [Decitabine] (partner 2 µM)
Summary of the method: as §1

[3] = compound: C[C@]1(c2nc3c(C(N)=O)cccc3[nH]2)CCCN1 [Veliparib] + CCNC(=O)c1noc(-c2cc(C(C)C)c(O)cc2O)c1-c1ccc(CN2CCOCC2)cc1 [Luminespib] (partner 0.01 µM)
Summary of the method: as §1

[4] = compound: COC1=CC=C(C=C1)CN2C=CC3=C2C=C(C=C3)C(=O)NO + CC(C)C[C@H](NC(=O)[C@H](Cc1ccccc1)NC(=O)c1cnccn1)B(O)O [Bortezomib] (partner 0.002 µM)
Summary of the method: as §1

Cell Line | relative viability ([1]; first compound 0.02 µM) | relative viability ([1]; first compound 0.06325 µM) | relative viability ([1]; first compound 0.2 µM) | relative viability ([1]; first compound 0.6325 µM) | relative viability ([1]; first compound 2 µM) | relative viability ([2]; first compound 0.08 µM) | relative viability ([2]; first compound 0.253 µM) | relative viability ([2]; first compound 0.8 µM) | relative viability ([2]; first compound 2.53 µM) | relative viability ([2]; first compound 8 µM) | relative viability ([3]; first compound 0.02 µM) | relative viability ([3]; first compound 0.06325 µM) | relative viability ([3]; first compound 0.2 µM) | relative viability ([3]; first compound 0.6325 µM) | relative viability ([3]; first compound 2 µM) | relative viability ([4]; first compound 0.08 µM) | relative viability ([4]; first compound 0.253 µM) | relative viability ([4]; first compound 0.8 µM) | relative viability ([4]; first compound 2.53 µM) | relative viability ([4]; first compound 8 µM)
HOP-62 | 0.634 | 0.549 | 0.705 | 0.648 | 0.651 | 0.173 | 0.217 | 0.216 | 0.27 | 0.244 | 0.831 | 0.858 | 0.783 | 0.669 | 0.836 | 0.893 | 0.841 | 0.912 | 0.853 | 0.946
LC-2-ad |  | 0.423 | 0.669 | 0.556 | 0.388 | 0.853 | 0.871 | 0.81 | 0.773 | 0.816 |  | 0.947 | 1.04 | 0.982 | 1.03 | 0.964 | 0.989 | 1 | 0.959 | 0.769
LCLC-97TM1 | 0.848 | 0.845 | 0.895 | 0.653 | 0.864 |  | 0.224 | 0.236 | 0.225 | 0.181 | 0.729 | 0.729 | 0.884 | 0.671 | 0.678 |  | 0.333 | 0.791 | 0.734 | 0.527
LCLC-103H | 0.5 | 0.469 | 0.449 | 0.495 | 0.482 | 0.731 | 0.812 | 0.761 | 0.779 | 0.681 | 0.987 | 0.888 | 1.04 | 0.907 | 0.992 | 0.982 | 0.998 | 1.11 | 1 | 1.06
LOU-NH91 | 0.529 | 0.522 | 0.537 | 0.544 | 0.53 |  | 0.828 | 0.831 | 0.851 | 0.824 | 0.339 | 0.401 | 0.352 | 0.285 | 0.342 | 0.387 | 0.472 | 0.466 | 0.476 | 0.504
LU99A | 0.592 | 0.51 | 0.612 | 0.517 | 0.431 |  | 0.959 | 0.952 | 0.843 | 0.911 | 0.284 | 0.25 | 0.191 | 0.228 | 0.237 |  | 1.13 | 1.14 | 1.06 | 0.938
LXF-289 | 0.251 | 0.2 | 0.251 | 0.204 | 0.224 |  | 0.413 | 0.391 | 0.386 | 0.329 | 0.652 | 0.712 | 0.759 | 0.545 | 0.601 | 0.699 | 1 | 0.956 | 0.964 | 0.931
NCI-H23 | 0.622 | 0.71 | 0.753 | 0.75 | 0.87 | 0.291 | 0.325 | 0.377 | 0.301 | 0.296 | 0.168 |  | 0.251 | 0.24 | 0.228 | 1.04 | 1.02 | 1.14 | 0.975 | 0.594
NCI-H322M |  | 0.231 | 0.246 | 0.27 | 0.253 |  |  | 0.716 | 0.66 | 0.69 |  | 0.814 | 0.915 | 0.855 | 0.848 |  | 0.971 | 1.27 | 1.23 | 1.26
